Reference: patent publication US20200360322A1, “FORMULATIONS AND DOSAGE FORMS FOR ENHANCING PERFORMANCE OR RECOVERY FROM STRESS” (ACTIVATE BIO PHYSICS CORP., priority 2017, published 2020)

Assays:
[1] = test system: animal after a 10-minute stop of blood flow; settings: cited from earlier work
SUCNR1 = SUCNR1 (Homo sapiens, UniProt Q9BXA5); settings: cited from earlier work
[2] = four- to seven-day alcohol poisoning or acute barbiturate poisoning

Chain of SUCNR1 (Q9BXA5 whole entry, species assumed): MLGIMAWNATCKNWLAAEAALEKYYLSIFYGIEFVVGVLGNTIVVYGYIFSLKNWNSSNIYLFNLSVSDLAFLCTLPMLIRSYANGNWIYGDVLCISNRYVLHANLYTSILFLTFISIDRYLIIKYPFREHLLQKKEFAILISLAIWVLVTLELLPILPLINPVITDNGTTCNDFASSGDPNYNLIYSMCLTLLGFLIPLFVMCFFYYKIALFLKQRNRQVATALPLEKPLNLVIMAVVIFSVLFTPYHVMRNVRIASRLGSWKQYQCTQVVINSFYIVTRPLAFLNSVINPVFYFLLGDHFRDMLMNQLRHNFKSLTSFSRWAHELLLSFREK

SMILES: O=C(O)CCC(=O)O [succinic acid]
- central nervous system recovery ([1]; oral administration): improves the central nervous system's recovery

SMILES: O=C([O-])CCC(=O)[O-].[Na+].[Na+] [sodium succinate]
- condition of the central nervous system ([1]; abdominal injection after the stop of blood flow): not only fails to improve, but can aggravate, the condition of the central nervous system

SMILES: O=C(O)CCC(=O)O [succinate]
- concentration in interstitial fluid and blood sufficient for SUCNR1 activation and HIF dimer stabilization (SUCNR1): 2.10^−4 mol
- concentration needed to activate SUCNR1 or to stabilize HIF (SUCNR1): 150 ± 180 µmol

SMILES: O=C(O)CCC(=O)O [natural conformer of succinic acid, succinic acid]
- severe intoxication [2]: contributes to the prevention of severe intoxication
